Data published in patent US10472352B2, “Rac inhibitors” (Geneyus LLC, priority 2017, dated 2019).
Like-named read-outs stand apart in the source and are kept apart here.

Tested on: BT474 breast cancer cells
Test: BT474 Four (4) Day Cell Viability Assay
Type: cell-based
Conditions: Homo sapiens, BT-474, 96 h, BT474, 4 days, read-out: cellular viability; for viability at 7.5 µM: 32661 7.5 μM; for viability at 10 µM: 32661 10 μM
Experimental: BT474 breast cancer cells that are Estrogen Receptor Positive and HER2+ were grown in 5% cFBS. 5,000 cells were seeded into each well of a 96-well plate and treated with escalating doses of lapatinib, fulvestrant, and 32661.

[1] = fulvestrant 0.0 nM, lapatinib 0.0 nM
[2] = fulvestrant 0.0 nM, lapatinib 6.9 nM
[3] = fulvestrant 0.0 nM, lapatinib 20.6 nM
[4] = fulvestrant 0.0 nM, lapatinib 61.7 nM
[5] = fulvestrant 0.0 nM, lapatinib 185.2 nM
[6] = fulvestrant 0.0 nM, lapatinib 555.6 nM
[7] = fulvestrant 0.0 nM, lapatinib 1666.7 nM
[8] = fulvestrant 0.0 nM, lapatinib 3333.0 nM
[9] = fulvestrant 6.9 nM, lapatinib 0.0 nM
[10] = fulvestrant 6.9 nM, lapatinib 6.9 nM
[11] = fulvestrant 6.9 nM, lapatinib 20.6 nM
[12] = fulvestrant 6.9 nM, lapatinib 61.7 nM
[13] = fulvestrant 6.9 nM, lapatinib 185.2 nM
[14] = fulvestrant 6.9 nM, lapatinib 555.6 nM
[15] = fulvestrant 6.9 nM, lapatinib 1666.7 nM
[16] = fulvestrant 6.9 nM, lapatinib 3333.0 nM
[17] = fulvestrant 20.6 nM, lapatinib 0.0 nM
[18] = fulvestrant 20.6 nM, lapatinib 6.9 nM
[19] = fulvestrant 20.6 nM, lapatinib 20.6 nM
[20] = fulvestrant 20.6 nM, lapatinib 61.7 nM
[21] = fulvestrant 20.6 nM, lapatinib 185.2 nM
[22] = fulvestrant 20.6 nM, lapatinib 555.6 nM
[23] = fulvestrant 20.6 nM, lapatinib 1666.7 nM
[24] = fulvestrant 20.6 nM, lapatinib 3333.0 nM
[25] = fulvestrant 61.7 nM, lapatinib 0.0 nM
[26] = fulvestrant 61.7 nM, lapatinib 6.9 nM
[27] = fulvestrant 61.7 nM, lapatinib 20.6 nM
[28] = fulvestrant 61.7 nM, lapatinib 61.7 nM
[29] = fulvestrant 61.7 nM, lapatinib 185.2 nM
[30] = fulvestrant 61.7 nM, lapatinib 555.6 nM
[31] = fulvestrant 61.7 nM, lapatinib 1666.7 nM
[32] = fulvestrant 61.7 nM, lapatinib 3333.0 nM
[33] = fulvestrant 185.2 nM, lapatinib 0.0 nM
[34] = fulvestrant 185.2 nM, lapatinib 6.9 nM
[35] = fulvestrant 185.2 nM, lapatinib 20.6 nM
[36] = fulvestrant 185.2 nM, lapatinib 61.7 nM
[37] = fulvestrant 185.2 nM, lapatinib 185.2 nM
[38] = fulvestrant 185.2 nM, lapatinib 555.6 nM
[39] = fulvestrant 185.2 nM, lapatinib 1666.7 nM
[40] = fulvestrant 185.2 nM, lapatinib 3333.0 nM
[41] = fulvestrant 555.6 nM, lapatinib 0.0 nM
[42] = fulvestrant 555.6 nM, lapatinib 6.9 nM
[43] = fulvestrant 555.6 nM, lapatinib 20.6 nM
[44] = fulvestrant 555.6 nM, lapatinib 61.7 nM
[45] = fulvestrant 555.6 nM, lapatinib 185.2 nM
[46] = fulvestrant 555.6 nM, lapatinib 555.6 nM
[47] = fulvestrant 555.6 nM, lapatinib 1666.7 nM
[48] = fulvestrant 555.6 nM, lapatinib 3333.0 nM
[49] = fulvestrant 1666.7 nM, lapatinib 0.0 nM
[50] = fulvestrant 1666.7 nM, lapatinib 6.9 nM
[51] = fulvestrant 1666.7 nM, lapatinib 20.6 nM
[52] = fulvestrant 1666.7 nM, lapatinib 61.7 nM
[53] = fulvestrant 1666.7 nM, lapatinib 185.2 nM
[54] = fulvestrant 1666.7 nM, lapatinib 555.6 nM
[55] = fulvestrant 1666.7 nM, lapatinib 1666.7 nM
[56] = fulvestrant 1666.7 nM, lapatinib 3333.0 nM
[57] = fulvestrant 3333.0 nM, lapatinib 0.0 nM
[58] = fulvestrant 3333.0 nM, lapatinib 6.9 nM
[59] = fulvestrant 3333.0 nM, lapatinib 20.6 nM
[60] = fulvestrant 3333.0 nM, lapatinib 61.7 nM
[61] = fulvestrant 3333.0 nM, lapatinib 185.2 nM
[62] = fulvestrant 3333.0 nM, lapatinib 555.6 nM
[63] = fulvestrant 3333.0 nM, lapatinib 1666.7 nM
[64] = fulvestrant 3333.0 nM, lapatinib 3333.0 nM

`FC(F)(F)c1ccc2c(SCCCCCCn3cnc(CN4CCOCC4)c3)ccnc2c1` [Compound 0032661, 4-[[1-[6-[[7-(trifluoromethyl)-4-quinolyl]sulfanyl]hexyl]imidazol-4-yl]methyl]morpholine] showed a viability at 5 µM (32661 5 μM, fulvestrant 3333.0 nM, lapatinib 3333.0 nM) of 1%, a viability at 7.5 µM [1] of 84% and a viability at 7.5 µM [2] of 76%. For the same compound, the viability at 7.5 µM [3] was 74%, the viability at 7.5 µM [4] was 65% and the viability at 7.5 µM [5] was 50%. It also gave a viability at 7.5 µM [6] of 30%, a viability at 7.5 µM [7] of 14% and a viability at 7.5 µM [8] of 12%. For the same compound, the viability at 7.5 µM [9] was 81%, the viability at 7.5 µM [10] was 72% and the viability at 7.5 µM [11] was 71%. It also gave a viability at 7.5 µM [12] of 64%, a viability at 7.5 µM [13] of 52% and a viability at 7.5 µM [14] of 27%. The viability at 7.5 µM [15] was 12%, the viability at 7.5 µM [16] was 9% and the viability at 7.5 µM [17] was 75%. For the same compound, the viability at 7.5 µM [18] was 73%, the viability at 7.5 µM [19] was 67% and the viability at 7.5 µM [20] was 62%. It also gave a viability at 7.5 µM [21] of 50%, a viability at 7.5 µM [22] of 23% and a viability at 7.5 µM [23] of 12%. The viability at 7.5 µM [24] was 4%, the viability at 7.5 µM [25] was 76% and the viability at 7.5 µM [26] was 66%. It also gave a viability at 7.5 µM [27] of 61%, a viability at 7.5 µM [28] of 58% and a viability at 7.5 µM [29] of 52%. For the same compound, the viability at 7.5 µM [30] was 24%, the viability at 7.5 µM [31] was 12% and the viability at 7.5 µM [32] was 4%. It also gave a viability at 7.5 µM [33] of 74%, a viability at 7.5 µM [34] of 64% and a viability at 7.5 µM [35] of 61%. It also gave a viability at 7.5 µM [36] of 54%, a viability at 7.5 µM [37] of 48% and a viability at 7.5 µM [38] of 24%. The viability at 7.5 µM [39] was 10%, the viability at 7.5 µM [40] was 5% and the viability at 7.5 µM [41] was 76%. It also gave a viability at 7.5 µM [42] of 59%, a viability at 7.5 µM [43] of 52% and a viability at 7.5 µM [44] of 45%. It also gave a viability at 7.5 µM [45] of 38%, a viability at 7.5 µM [46] of 19% and a viability at 7.5 µM [47] of 3%. It also gave a viability at 7.5 µM [48] of 1%, a viability at 7.5 µM [49] of 69% and a viability at 7.5 µM [50] of 35%. The viability at 7.5 µM [51] was 28%, the viability at 7.5 µM [52] was 25% and the viability at 7.5 µM [53] was 21%. The viability at 7.5 µM [54] was 12%, the viability at 7.5 µM [55] was 2% and the viability at 7.5 µM [56] was 0%. It also gave a viability at 7.5 µM [57] of 49%, a viability at 7.5 µM [58] of 16% and a viability at 7.5 µM [59] of 13%. For the same compound, the viability at 7.5 µM [60] was 11%, the viability at 7.5 µM [61] was 7% and the viability at 7.5 µM [62] was 2%. The viability at 7.5 µM [63] was 3%, the viability at 7.5 µM [64] was 1% and the viability at 10 µM [1] was 90%. It also gave a viability at 10 µM [2] of 42%, a viability at 10 µM [3] of 38% and a viability at 10 µM [4] of 35%. The viability at 10 µM [5] was 28%, the viability at 10 µM [6] was 28% and the viability at 10 µM [7] was 23%. The viability at 10 µM [8] was 5%, the viability at 10 µM [9] was 90% and the viability at 10 µM [10] was 38%. For the same compound, the viability at 10 µM [11] was 35%, the viability at 10 µM [12] was 33% and the viability at 10 µM [13] was 27%. The viability at 10 µM [14] was 24%, the viability at 10 µM [15] was 20% and the viability at 10 µM [16] was 3%. For the same compound, the viability at 10 µM [17] was 89%, the viability at 10 µM [18] was 36% and the viability at 10 µM [19] was 36%. The viability at 10 µM [20] was 33%, the viability at 10 µM [21] was 28% and the viability at 10 µM [22] was 23%. For the same compound, the viability at 10 µM [23] was 20%, the viability at 10 µM [24] was 3% and the viability at 10 µM [25] was 86%. For the same compound, the viability at 10 µM [26] was 37%, the viability at 10 µM [27] was 35% and the viability at 10 µM [28] was 33%. It also gave a viability at 10 µM [29] of 27%, a viability at 10 µM [30] of 23% and a viability at 10 µM [31] of 20%. The viability at 10 µM [32] was 2%, the viability at 10 µM [33] was 86% and the viability at 10 µM [34] was 33%. The viability at 10 µM [35] was 33%, the viability at 10 µM [36] was 31% and the viability at 10 µM [37] was 24%. For the same compound, the viability at 10 µM [38] was 23%, the viability at 10 µM [39] was 18% and the viability at 10 µM [40] was 1%. The viability at 10 µM [41] was 81%, the viability at 10 µM [42] was 31% and the viability at 10 µM [43] was 29%. For the same compound, the viability at 10 µM [44] was 29%, the viability at 10 µM [45] was 24% and the viability at 10 µM [46] was 23%. The viability at 10 µM [47] was 18%, the viability at 10 µM [48] was 1% and the viability at 10 µM [49] was 78%. It also gave a viability at 10 µM [50] of 16%, a viability at 10 µM [51] of 16% and a viability at 10 µM [52] of 15%. For the same compound, the viability at 10 µM [53] was 16%, the viability at 10 µM [54] was 15% and the viability at 10 µM [55] was 7%. It also gave a viability at 10 µM [56] of 0%, a viability at 10 µM [57] of 55% and a viability at 10 µM [58] of 3%. It also gave a viability at 10 µM [59] of 3%, a viability at 10 µM [60] of 6% and a viability at 10 µM [61] of 2%. It also gave a viability at 10 µM [62] of 2%, a viability at 10 µM [63] of 1% and a viability at 10 µM [64] of 0%.
